From article PMC7827406, “Structure–Activity Relationship (SAR) Study of Spautin-1 to Entail the Discovery of Novel NEK4 Inhibitors” (International Journal of Molecular Sciences, 2021)
Where two headings read alike, the source gives them in different places.

Experiments:
Assay in all cases: biochemical
Design in all cases: Eurofins KinaseProfiler full panel at Km ATP, residual kinase activity (%) relative to DMSO
MYO3B(h) = target: T1, MYO3B(h) (Homo sapiens, UniProt Q8WXR4)
T1 sequence (Q8WXR4 1-1341): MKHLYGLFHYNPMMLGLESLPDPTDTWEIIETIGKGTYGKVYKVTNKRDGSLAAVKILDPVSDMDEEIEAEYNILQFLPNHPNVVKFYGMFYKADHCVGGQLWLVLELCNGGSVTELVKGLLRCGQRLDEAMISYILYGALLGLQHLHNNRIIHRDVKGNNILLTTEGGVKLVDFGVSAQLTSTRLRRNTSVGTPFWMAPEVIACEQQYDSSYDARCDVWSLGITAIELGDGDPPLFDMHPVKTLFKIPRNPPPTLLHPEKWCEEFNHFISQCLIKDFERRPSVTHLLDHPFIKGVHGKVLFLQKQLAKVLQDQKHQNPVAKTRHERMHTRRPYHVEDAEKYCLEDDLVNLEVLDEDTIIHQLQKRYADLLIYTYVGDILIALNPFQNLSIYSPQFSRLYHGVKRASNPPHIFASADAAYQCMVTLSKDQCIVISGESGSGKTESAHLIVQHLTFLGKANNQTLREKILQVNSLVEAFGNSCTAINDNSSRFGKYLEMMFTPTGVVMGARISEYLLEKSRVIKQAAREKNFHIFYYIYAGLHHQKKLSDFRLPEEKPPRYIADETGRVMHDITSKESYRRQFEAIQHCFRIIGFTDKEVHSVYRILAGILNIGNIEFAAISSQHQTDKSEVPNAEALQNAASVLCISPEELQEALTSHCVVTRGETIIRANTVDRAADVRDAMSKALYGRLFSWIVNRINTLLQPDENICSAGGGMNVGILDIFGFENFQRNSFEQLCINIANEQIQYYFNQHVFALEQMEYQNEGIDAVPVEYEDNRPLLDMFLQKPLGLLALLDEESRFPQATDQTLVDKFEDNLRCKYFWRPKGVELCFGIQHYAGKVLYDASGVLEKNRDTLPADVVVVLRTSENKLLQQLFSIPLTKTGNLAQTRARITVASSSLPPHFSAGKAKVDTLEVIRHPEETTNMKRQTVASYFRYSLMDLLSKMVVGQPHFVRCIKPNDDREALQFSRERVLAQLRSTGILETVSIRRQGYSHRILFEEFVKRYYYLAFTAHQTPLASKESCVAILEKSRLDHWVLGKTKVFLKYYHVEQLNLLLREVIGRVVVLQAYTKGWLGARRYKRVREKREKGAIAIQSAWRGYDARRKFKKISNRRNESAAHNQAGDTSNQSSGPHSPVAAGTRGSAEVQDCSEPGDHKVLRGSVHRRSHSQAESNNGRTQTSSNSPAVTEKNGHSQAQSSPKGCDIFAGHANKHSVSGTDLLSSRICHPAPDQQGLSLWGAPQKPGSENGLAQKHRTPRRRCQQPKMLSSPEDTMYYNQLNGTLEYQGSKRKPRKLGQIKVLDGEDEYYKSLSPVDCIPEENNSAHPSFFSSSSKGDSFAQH
How it was run: (§1)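 Compounds screened at 10 µM in radiometric kinase activity assays at Km ATP, reported as remaining kinase activity (%). A KINOMEscan competition-binding screen at 10 µM measured DNA-tagged kinase retained on immobilized active-site ligand by qPCR.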

PAK6(h) = PAK6(h) (Homo sapiens, UniProt Q9NQU5)
How it was run: as §1

Mnk2(h) = target: T2, Mnk2(h) (Homo sapiens, UniProt Q9HBH9)
T2 construct: gene MKNK2
How it was run: as §1

NEK2(h) = target: T3, NEK2(h) (Homo sapiens, UniProt P51955)
T3 sequence (P51955 1-445): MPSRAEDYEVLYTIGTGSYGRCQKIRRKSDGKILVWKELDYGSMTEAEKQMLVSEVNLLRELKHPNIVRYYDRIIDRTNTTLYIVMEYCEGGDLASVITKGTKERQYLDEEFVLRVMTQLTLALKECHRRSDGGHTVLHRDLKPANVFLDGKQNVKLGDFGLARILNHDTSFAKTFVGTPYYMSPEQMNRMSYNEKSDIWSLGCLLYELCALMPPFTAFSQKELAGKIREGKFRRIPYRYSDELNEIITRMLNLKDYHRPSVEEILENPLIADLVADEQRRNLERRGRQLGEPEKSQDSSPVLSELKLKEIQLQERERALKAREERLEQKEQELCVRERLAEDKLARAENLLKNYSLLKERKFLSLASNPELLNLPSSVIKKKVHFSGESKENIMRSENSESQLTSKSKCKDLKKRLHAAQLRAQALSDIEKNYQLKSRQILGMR
How it was run: as §1

GSK3α(h) = target: T4, GSK3α(h) (Homo sapiens, UniProt P49840)
T4 construct: gene GSK3A
How it was run: as §1

MRCKγ(h) = target: T5, MRCKγ(h) (Homo sapiens, UniProt Q6DT37)
T5 construct: gene CDC42BPG
How it was run: as §1

[1] = read-out: Residual activity (%) Spautin-1 5aa
[2] = read-out: Residual activity (%) 5as
[3] = read-out: Residual activity (%) 5at
[4] = read-out: Residual activity (%) 5ay

Chain of PAK6(h) (Q9NQU5 whole entry): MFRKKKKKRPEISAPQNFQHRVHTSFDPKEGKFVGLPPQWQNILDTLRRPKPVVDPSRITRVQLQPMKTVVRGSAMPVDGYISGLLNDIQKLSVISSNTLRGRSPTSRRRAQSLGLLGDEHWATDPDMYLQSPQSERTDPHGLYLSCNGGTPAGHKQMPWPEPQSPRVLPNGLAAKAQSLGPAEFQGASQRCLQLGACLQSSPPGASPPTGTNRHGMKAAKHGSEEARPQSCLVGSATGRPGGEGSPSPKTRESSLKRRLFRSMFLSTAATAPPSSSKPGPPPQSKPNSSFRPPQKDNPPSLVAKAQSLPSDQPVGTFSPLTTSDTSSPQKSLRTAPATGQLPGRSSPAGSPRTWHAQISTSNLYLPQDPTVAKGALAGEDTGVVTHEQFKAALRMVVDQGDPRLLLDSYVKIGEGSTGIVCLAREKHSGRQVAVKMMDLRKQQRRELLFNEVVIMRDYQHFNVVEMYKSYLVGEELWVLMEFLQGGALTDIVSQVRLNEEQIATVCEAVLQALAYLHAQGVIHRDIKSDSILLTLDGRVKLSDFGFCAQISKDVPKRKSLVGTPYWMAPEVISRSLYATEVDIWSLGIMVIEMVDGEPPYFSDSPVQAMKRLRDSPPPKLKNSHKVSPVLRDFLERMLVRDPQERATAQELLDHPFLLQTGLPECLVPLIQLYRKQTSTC
T4 sequence (P49840 whole entry): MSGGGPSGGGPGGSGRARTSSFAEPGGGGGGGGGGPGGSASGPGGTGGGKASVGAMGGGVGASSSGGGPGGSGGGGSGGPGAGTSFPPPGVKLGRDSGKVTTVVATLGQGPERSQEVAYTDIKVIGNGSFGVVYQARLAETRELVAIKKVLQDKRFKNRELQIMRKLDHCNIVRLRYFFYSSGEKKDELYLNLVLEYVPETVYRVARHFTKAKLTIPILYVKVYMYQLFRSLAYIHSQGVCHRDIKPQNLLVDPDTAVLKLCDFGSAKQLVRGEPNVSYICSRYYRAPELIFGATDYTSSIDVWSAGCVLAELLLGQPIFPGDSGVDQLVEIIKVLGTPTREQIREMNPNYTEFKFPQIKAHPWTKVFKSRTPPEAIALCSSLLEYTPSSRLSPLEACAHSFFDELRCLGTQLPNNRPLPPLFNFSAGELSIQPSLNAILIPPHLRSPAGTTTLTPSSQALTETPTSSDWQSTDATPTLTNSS
T5 sequence (Q6DT37 whole entry): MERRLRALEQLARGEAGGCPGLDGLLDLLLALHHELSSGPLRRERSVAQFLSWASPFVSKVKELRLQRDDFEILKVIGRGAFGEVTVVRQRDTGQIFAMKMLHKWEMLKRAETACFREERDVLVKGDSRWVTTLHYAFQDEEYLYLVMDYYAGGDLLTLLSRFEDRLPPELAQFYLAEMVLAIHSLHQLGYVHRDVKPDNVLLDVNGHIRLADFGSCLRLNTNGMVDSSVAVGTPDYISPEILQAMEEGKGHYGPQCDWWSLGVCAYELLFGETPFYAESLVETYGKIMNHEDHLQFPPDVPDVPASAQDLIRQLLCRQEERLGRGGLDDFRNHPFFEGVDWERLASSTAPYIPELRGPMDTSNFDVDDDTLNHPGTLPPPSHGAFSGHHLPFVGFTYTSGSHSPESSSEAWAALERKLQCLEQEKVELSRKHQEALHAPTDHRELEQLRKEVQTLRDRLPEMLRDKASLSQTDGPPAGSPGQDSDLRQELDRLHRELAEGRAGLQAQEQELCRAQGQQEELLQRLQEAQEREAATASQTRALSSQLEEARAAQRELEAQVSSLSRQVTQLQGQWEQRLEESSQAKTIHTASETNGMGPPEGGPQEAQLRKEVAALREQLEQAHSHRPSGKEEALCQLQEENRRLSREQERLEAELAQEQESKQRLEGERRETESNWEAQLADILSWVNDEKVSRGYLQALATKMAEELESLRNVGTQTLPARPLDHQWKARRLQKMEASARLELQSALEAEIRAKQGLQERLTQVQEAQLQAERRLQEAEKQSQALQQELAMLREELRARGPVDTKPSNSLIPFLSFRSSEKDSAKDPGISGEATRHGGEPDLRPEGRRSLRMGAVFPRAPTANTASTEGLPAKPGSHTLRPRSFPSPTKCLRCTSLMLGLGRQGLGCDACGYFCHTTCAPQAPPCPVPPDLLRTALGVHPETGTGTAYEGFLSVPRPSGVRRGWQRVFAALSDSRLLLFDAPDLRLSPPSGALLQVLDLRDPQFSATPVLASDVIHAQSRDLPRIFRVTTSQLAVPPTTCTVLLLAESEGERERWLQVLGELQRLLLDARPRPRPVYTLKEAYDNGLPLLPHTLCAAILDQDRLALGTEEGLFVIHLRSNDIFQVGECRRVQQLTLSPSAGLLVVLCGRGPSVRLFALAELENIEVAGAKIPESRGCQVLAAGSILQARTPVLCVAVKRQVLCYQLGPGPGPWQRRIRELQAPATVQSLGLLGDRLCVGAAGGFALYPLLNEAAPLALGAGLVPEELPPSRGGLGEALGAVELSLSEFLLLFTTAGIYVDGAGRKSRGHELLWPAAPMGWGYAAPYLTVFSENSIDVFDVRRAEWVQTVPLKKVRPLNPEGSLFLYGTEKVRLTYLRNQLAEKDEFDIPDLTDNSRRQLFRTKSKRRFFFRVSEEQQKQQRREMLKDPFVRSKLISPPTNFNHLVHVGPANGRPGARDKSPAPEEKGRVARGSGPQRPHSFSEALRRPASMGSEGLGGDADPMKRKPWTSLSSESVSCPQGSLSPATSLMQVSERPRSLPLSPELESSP
T2 sequence (Q9HBH9 whole entry): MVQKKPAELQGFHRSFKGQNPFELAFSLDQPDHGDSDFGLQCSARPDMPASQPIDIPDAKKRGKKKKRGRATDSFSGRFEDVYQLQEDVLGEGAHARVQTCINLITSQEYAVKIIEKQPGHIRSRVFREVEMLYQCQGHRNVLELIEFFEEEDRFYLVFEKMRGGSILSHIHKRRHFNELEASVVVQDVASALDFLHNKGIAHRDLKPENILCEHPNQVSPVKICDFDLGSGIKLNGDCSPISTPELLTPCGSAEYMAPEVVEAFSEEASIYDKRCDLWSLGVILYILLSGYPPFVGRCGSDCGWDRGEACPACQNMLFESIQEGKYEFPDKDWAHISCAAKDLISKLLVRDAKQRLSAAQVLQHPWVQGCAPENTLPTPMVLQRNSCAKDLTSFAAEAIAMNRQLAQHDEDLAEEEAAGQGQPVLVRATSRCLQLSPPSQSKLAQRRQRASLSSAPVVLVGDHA

Fc1ccc(CNc2ncnc3ccc(F)cc23)cc1 [5aa, 6-Fluoro-N-(4-fluorobenzyl)-4-Quinazolinamine]
remaining activity at 10 µM (MYO3B(h); [1]): 89%
remaining activity at 10 µM (PAK6(h); [1]): 92%
remaining activity at 10 µM (Mnk2(h); [1]): 93%
remaining activity at 10 µM (NEK2(h); [1]): 91%
remaining activity at 10 µM (GSK3α(h); [1]): 93%
remaining activity at 10 µM (MRCKγ(h); [1]): 105%

Fc1ccc(CCNc2ncnc3ccc(F)cc23)cc1 [5as, 6-Fluoro-N-[2-(4-Fluorophenyl)Ethyl]-4-Quinazolinamine]
remaining activity at 10 µM (MYO3B(h); [2]): 84%
remaining activity at 10 µM (PAK6(h); [2]): 84%
remaining activity at 10 µM (Mnk2(h); [2]): 83%
remaining activity at 10 µM (NEK2(h); [2]): 88%
remaining activity at 10 µM (GSK3α(h); [2]): 101%
remaining activity at 10 µM (MRCKγ(h); [2]): 98%

Fc1ccc2ncnc(NCCc3ccc(Cl)cc3)c2c1 [5at, N-[2-(4-Chlorophenyl)Ethyl]-6-Fluoro-4-Quinazolinamine]
remaining activity at 10 µM (MYO3B(h); [3]): 87%
remaining activity at 10 µM (PAK6(h); [3]): 92%
remaining activity at 10 µM (Mnk2(h); [3]): 80%
remaining activity at 10 µM (NEK2(h); [3]): 95%
remaining activity at 10 µM (GSK3α(h); [3]): 102%
remaining activity at 10 µM (MRCKγ(h); [3]): 102%

COc1ccc2ncnc(Nc3cccc(F)c3)c2c1 [5ay, N-(3-Fluorophenyl)-6-Methoxy-4-Quinazolinamine]
remaining activity at 10 µM (MYO3B(h); [4]): 88%
remaining activity at 10 µM (PAK6(h); [4]): 86%
remaining activity at 10 µM (Mnk2(h); [4]): 19%
remaining activity at 10 µM (NEK2(h); [4]): 92%
remaining activity at 10 µM (GSK3α(h); [4]): 69%
remaining activity at 10 µM (MRCKγ(h); [4]): 92%
